Values quoted from earlier work, collected in US9504728B2, “Dosage form” (priority 2011, dated 2016).
Like-named read-outs stand apart in the source and are kept apart here.

Columns and labels:
HIV-1 = settings: Steyn et al., 2006, cited from earlier work
HBV = settings: Ptak et al. 2008; read-out: IC50 against HBV; cited from earlier work

## C/C=C/C[C@@H](C)[C@@H](O)[C@H]1C(=O)N[C@@H](CC)C(=O)N(C)[C@H](C)C(=O)N(CC)[C@@H](C(C)C)C(=O)N[C@@H](C(C)C)C(=O)N(C)[C@@H](CC(C)C)C(=O)N[C@@H](C)C(=O)N[C@H](C)C(=O)N(C)[C@@H](CC(C)C)C(=O)N(C)[C@@H](CC(C)C)C(=O)N(C)[C@@H](C(C)C)C(=O)N1C [DEBIO-025]
HIV-1; in nine patients
  reduction of HIV-1 RNA levels: ≥ 0.5 log 10 copies/mL
HIV-1; in two patients
  reduction of HIV-1 RNA levels: > 1 log 10 copies/mL
HBV
  IC50: 4.1 µM
